Reference: patent US11999746B2, “Compounds” (GlaxoSmithKline Intellectual Property Development Limited, priority 2014, dated 2024)

Legend:
[1] = target: T1, recombinant human Lp-PLA2 (Homo sapiens, UniProt Q13093); assay: (1a) PED6 assay, recombinant human Lp-PLA2 (rhLp-PLA2); assay type: biochemical; details: Examples 1-167 and 413-430 were tested here, one experiment or average of multiple experiments, read-out: rhLp-PLA2 (pIC50) (converted)
T1 sequence (Q13093 22-441): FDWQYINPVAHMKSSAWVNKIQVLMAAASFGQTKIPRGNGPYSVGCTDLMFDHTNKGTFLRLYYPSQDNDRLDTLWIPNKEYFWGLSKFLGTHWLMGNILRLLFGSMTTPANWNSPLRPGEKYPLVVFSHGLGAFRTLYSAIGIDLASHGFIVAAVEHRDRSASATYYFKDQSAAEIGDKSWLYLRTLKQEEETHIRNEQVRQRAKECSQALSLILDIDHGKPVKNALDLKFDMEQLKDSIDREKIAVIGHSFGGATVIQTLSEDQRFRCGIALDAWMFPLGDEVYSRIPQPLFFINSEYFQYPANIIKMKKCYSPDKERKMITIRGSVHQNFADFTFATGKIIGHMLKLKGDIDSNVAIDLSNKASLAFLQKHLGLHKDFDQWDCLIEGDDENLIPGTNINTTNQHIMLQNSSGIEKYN
Method in brief: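 PED6 (2 μM final after 1:1 addition of 4 μM stock) cleavage by rhLp-PLA2 (4 nM working solution) in 50 mM HEPES pH 7.4, 150 mM NaCl, 1 mM CHAPS; compounds preincubated with enzyme 30 minutes, reaction 20 min at room temperature. Fluorescence at ex 480/em 540; pIC50 from curve fit.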

[2] = target: T2, Lp-PLA2 in human plasma (Homo sapiens, UniProt Q13093); assay: (3a) Lp-PLA2 human plasma Thio-PAF assay; assay type: biochemical; details: (3a) Thio-PAF assay, pooled human plasma; Examples 1-265 and 413-430 were tested here; read-out: pIC50 in the Lp-PLA2 human plasma assay (converted)
T2 construct: from tissue; host or cells: pooled human plasma
T2 sequence (Q13093 22-441): T1 sequence (Q13093 22-441)
Method in brief: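 Endogenous Lp-PLA2 activity in frozen pooled human plasma measured as thiol release from 2-thio-PAF, detected by CPM fluorescence (ex 380/em 485). Compound preincubation 30 min; 2-min reaction in HEPES pH 7.4 buffer with NEM, stopped with 5% TFA, read 40 min later at room temperature; values as pIC50.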

SMILES | IC50 [1] | IC50 [2]
O=c1nc(OCc2ccc(Oc3cncc(C(F)(F)F)c3)c(F)c2)cc2n1CC1CCCCN21 (stereo not shown) [Example E47, 3-((3-Fluoro-4-((5-(trifluoromethyl)pyridin-3-yl)oxy)benzyl)oxy)-6,7,8,9,9a,10-hexahydro-1H-pyrido[1′,2′:3,4]imidazo[1,2-c]pyrimidin-1-one] | ≤ 1 nM | ≤ 100 nM
Cn1cc(Oc2c(F)cc(COc3cc4n(c(=O)n3)C[C@@H]3CCCCN43)cc2F)cn1 [Example E50, (S)-3-((3,5-difluoro-4-((1-methyl-1H-pyrazol-4-yl)oxy)benzyl)oxy)-6,7,8,9,9a,10-hexahydro-1H-pyrido[1′,2′:3,4]imidazo[1,2-c]pyrimidin-1-one] | ≤ 100 nM | ≤ 10000 nM
Cn1cc(Oc2ccc(COc3cc4n(c(=O)n3)C[C@@H]3CCCCN43)cc2F)cn1 [Example E51, (S)-3-((3-fluoro-4-((1-methyl-1H-pyrazol-4-yl)oxy)benzyl)oxy)-6,7,8,9,9a,10-hexahydro-1H-pyrido[1,2′:3,4]imidazo[1,2-c]pyrimidin-1-one] | ≤ 100 nM | ≤ 10000 nM
O=c1nc(OCc2ccc(F)cc2F)cc2n1C[C@H]1CCCCN21 [Example E55, (R)-3-((2,4-Difluorobenzyl)oxy)-6,7,8,9,9a,10-hexahydro-1H-pyrido[1′,2′:3,4]imidazo[1,2-c] pyrimidin-1-one] | ≤ 100 nM | ≤ 10000 nM
O=c1nc(OCc2cccc(F)c2F)cc2n1C[C@@H]1CCCCN21 [Example E58, (S)-3-((2,3-Difluorobenzyl)oxy)-6,7,8,9,9a,10-hexahydro-1H-pyrido[1′,2′:3,4]imidazo[1,2-c] pyrimidin-1-one] | ≤ 100 nM | ≤ 10000 nM
O=c1nc(OCc2cc(F)c(F)cc2F)cc2n1C[C@@H]1CCCCN21 [Example E59, (S)-3-((2,4,5-Trifluorobenzyl)oxy)-6,7,8,9,9a,10-hexahydro-1H-pyrido[1′,2′:3,4]imidazo[1,2-c]pyrimidin-1-one] | ≤ 100 nM | ≤ 10000 nM
O=c1nc(OCc2cccc(F)c2)cc2n1C[C@@H]1CCCCN21 [Example E60, (S)-3-((3-Fluorobenzyl)oxy)-6,7,8,9,9a,10-hexahydro-1H-pyrido[1′,2′:3,4]imidazo[1,2-c] pyrimidin-1-one] | ≤ 100 nM | ≤ 10000 nM
CCn1cc(Oc2c(F)cc(COc3cc4n(c(=O)n3)CC3CCCN43)cc2F)cn1 (stereo not shown) [Example E64, 3-((4-((1-Ethyl-1H-pyrazol-4-yl)oxy)-3,5-difluorobenzyl)oxy)-7,8,8a, 9-tetrahydropyrrolo[1′,2′:3,4]imidazo[1,2-c]pyrimidin-1(6H)-one] | ≤ 100 nM | ≤ 10000 nM
Cn1cc(Oc2c(F)cc(COc3cc4n(c(=O)n3)C[C@H]3CCCN43)cc2F)cn1 [Example E66, (R)-3-((3,5-difluoro-4-((1-methyl-1H-pyrazol-4-yl)oxy)benzyl)oxy)-7,8,8a, 9-tetrahydro pyrrolo[1′,2′:3,4]imidazo[1,2-c]pyrimidin-1(6H)-one] | ≤ 100 nM | ≤ 10000 nM
O=c1nc(OCc2cc(F)c(F)c(F)c2)cc2n1C[C@@H]1CCCN21 [Example E73, (S)-3-((3,4,5-trifluorobenzyl)oxy)-7,8,8a,9-tetrahydropyrrolo[1,2′:3,4]imidazo[1,2-c] pyrimidin-1(6H)-one] | ≤ 100 nM | ≤ 10000 nM
O=c1nc(OCc2cc(F)c(Oc3ccc(F)c(F)c3)c(F)c2)cc2n1C[C@@H]1CCCN21 [Example E74, (S)-3-((4-(3,4-difluorophenoxy)-3,5-difluorobenzyl)oxy)-7,8,8a,9-tetrahydropyrrolo[1′,2′:3,4]imidazo[1,2-c]pyrimidin-1(6H)-one] | ≤ 100 nM | ≤ 10000 nM

Now from value to compound:

IC50 [1] | IC50 [2] | SMILES
≤ 1 nM | ≤ 100 nM | O=c1nc(OCc2ccc(Oc3cnc(C(F)(F)F)nc3)c(F)c2)cc2n1CC1CCCCN21 (stereo not shown) [Example E46, 3-((3-Fluoro-4-((2-(trifluoromethyl)pyrimidin-5-yl)oxy)benzyl)oxy)-6,7,8,9,9a,10-hexahydro-1H-pyrido[1′,2′:3,4]imidazo[1,2-c]pyrimidin-1-one]
≤ 1 nM | ≤ 10000 nM | O=c1nc(OCc2ccc(Oc3ccc(C(F)(F)F)nc3)c(F)c2)cc2n1CC1CCCCN21 (stereo not shown) [Example E48, 3-((3-Fluoro-4-((6-(trifluoromethyl)pyridin-3-yl)oxy)benzyl)oxy)-6,7,8,9,9a,10-hexahydro-1H-pyrido[1′,2′:3,4]imidazo[1,2-c]pyrimidin-1-one]
≤ 1 nM | ≤ 100 nM | O=c1nc(OCc2cc(F)c(Oc3ccc(C(F)(F)F)nc3)c(F)c2)cc2n1CC1CCCCN21 (stereo not shown) [Example E49, 3-((3,5-difluoro-4-((6-(trifluoromethyl)pyridin-3-yl)oxy)benzyl)oxy)-6,7,8,9,9a,10-hexahydro-1H-pyrido[1′,2′:3,4]imidazo[1,2-c]pyrimidin-1-one]
≤ 100 nM | ≤ 100 nM | O=c1nc(OCc2cccc(F)c2)cc2n1C[C@H]1CCCCN21 [Example E52, (R)-3-((3-Fluorobenzyl)oxy)-6,7,8,9,9a,10-hexahydro-1H-pyrido[1′,2′:3,4]imidazo[1,2-c] pyrimidin-1-one]
≤ 100 nM | ≤ 10000 nM | O=c1nc(OCc2cc(F)cc(F)c2)cc2n1C[C@H]1CCCCN21 [Example E53, (R)-3-((3,5-Difluorobenzyl)oxy)-6,7,8,9,9a,10-hexahydro-1H-pyrido[1′,2′:3,4]imidazo[1,2-c] pyrimidin-1-one]
≤ 100 nM | ≤ 100 nM | O=c1nc(OCc2cc(F)c(F)c(F)c2)cc2n1C[C@H]1CCCCN21 [Example E54, (R)-3-((3,4,5-Trifluorobenzyl)oxy)-6,7,8,9,9a,10-hexahydro-1H-pyrido[1′,2′:3,4]imidazo[1,2-c]pyrimidin-1-one]
≤ 100 nM | ≤ 10000 nM | O=c1nc(OCc2cccc(F)c2F)cc2n1C[C@H]1CCCCN21 [Example E56, (R)-3-((2,3-Difluorobenzyl)oxy)-6,7,8,9,9a,10-hexahydro-1H-pyrido[1′,2′:3,4]imidazo[1,2-c] pyrimidin-1-one]
≤ 100 nM | ≤ 10000 nM | O=c1nc(OCc2ccc(F)cc2F)cc2n1C[C@@H]1CCCCN21 [Example E57, (S)-3-((2,4-Difluorobenzyl)oxy)-6,7,8,9,9a,10-hexahydro-1H-pyrido[1′,2′:3,4]imidazo[1,2-c] pyrimidin-1-one]
≤ 100 nM | ≤ 10000 nM | O=c1nc(OCc2cc(F)c(OC3(CCF)CC3)c(F)c2)cc2n1C[C@H]1CCCCN21 [Example E62, (R)-3-((3,5-Difluoro-4-(1-(2-fluoroethyl)cyclopropoxy)benzyl)oxy)-6,7,8,9,9a,10-hexahydro-1H-pyrido[1′,2′:3,4]imidazo[1,2-c]pyrimidin-1-one]
≤ 100 nM | ≤ 10000 nM | Cn1cc(Oc2c(F)cc(COc3cc4n(c(=O)n3)CC3CCCN43)cc2F)cn1 (stereo not shown) [Example E63, 3-((3,5-Difluoro-4-((1-methyl-1H-pyrazol-4-yl)oxy)benzyl)oxy)-7,8,8a,9-tetrahydro pyrrolo[1′,2′:3, 4] imidazo[1,2-c] pyrimidin-1(6H)-one]
≤ 100 nM | ≤ 10000 nM | CC(C)n1cc(Oc2c(F)cc(COc3cc4n(c(=O)n3)CC3CCCN43)cc2F)cn1 (stereo not shown) [Example E65, 3-((3,5-Difluoro-4-((1-isopropyl-1H-pyrazol-4-yl)oxy)benzyl)oxy)-7,8,8a, 9-tetrahydro pyrrolo[1′,2′:3,4]imidazo[1,2-c]pyrimidin-1(6H)-one]
≤ 100 nM | ≤ 10000 nM | Cn1cc(Oc2ccc(COc3cc4n(c(=O)n3)C[C@H]3CCCN43)cc2F)cn1 [Example E68, (R)-3-((3-fluoro-4-((1-methyl-1H-pyrazol-4-yl)oxy)benzyl)oxy)-7,8,8a, 9-tetrahydro pyrrolo[1′,2′:3,4]imidazo[1,2-c]pyrimidin-1(6H)-one]
≤ 100 nM | ≤ 100 nM | O=c1nc(OCc2ccc(Oc3cnc(C(F)(F)F)nc3)c(F)c2)cc2n1C[C@H]1CCCN21 [Example E69, (R)-3-((3-fluoro-4-((2-(trifluoromethyl)pyrimidin-5-yl)oxy)benzyl)oxy)-7,8,8a, 9-tetra hydropyrrolo[1′,2′:3,4]imidazo[1,2-c]pyrimidin-1(6H)-one]
≤ 100 nM | ≤ 100 nM | O=c1nc(OCc2cc(F)c(F)c(F)c2)cc2n1C[C@H]1CCCN21 [Example E70, (R)-3-((3,4,5-trifluorobenzyl)oxy)-7,8,8a,9-tetrahydropyrrolo[1′,2′:3,4]imidazo[1,2-c] pyrimidin-1(6H)-one]
≤ 100 nM | ≤ 10000 nM | O=c1nc(OCc2ccc(Oc3cnc(C(F)(F)F)nc3)c(F)c2)cc2n1C[C@@H]1CCCN21 [Example E72, (S)-3-((3-fluoro-4-((2-(trifluoromethyl)pyrimidin-5-yl)oxy)benzyl)oxy)-7,8,8a, 9-tetra hydropyrrolo[1′,2′:3,4]imidazo[1,2-c]pyrimidin-1(6H)-one]
